Earlier results in patent US20230413813A1, “ANTIMICROBIAL COMPOSITION COMPRISING A POLYIMIDE” (The Procter & Gamble Company, priority 2022, published 2023).

solubility in water: ~1%
SMILES: CC(=O)O.CC(=O)O.NC(=N\CCCCCC/N=C(N)/N=C(\N)Nc1ccc(Cl)cc1)/N=C(\N)Nc1ccc(Cl)cc1 [Chlorhexidine diaceate, Chlorhexidine diacetate]
